Results taken from patent publication US10577638B2, “Systems, devices, and methods for microbial detection and identification, and antimicrobial susceptibility testing” (Board of Regents, The University of Texas System, priority 2013, dated 2020).

Test system: CA-MRSA clinical isolates and a wild type CA-MRSA strain
Test: AST-Chip antibiotic susceptibility test of CA-MRSA clinical isolates (FUN-1 fluorescence)
Format: cell-based, Staphylococcus aureus
Conditions: isolates A32, K2 and B2 compared with isolates I27, D1, M2 and WT, 8 μg/ml, incubated 16 h
Protocol: The key steps in chip fabrication are described in below (these methods are also described in Srinivasan et al., which is incorporated by reference herein). The fabrication included three steps: (i) modification of the surface of glass slides with poly(styrene-co-maleic anhydride) (PSMA); (ii) printing spots of a 30 nl mixture of poly-l-lysine and barium chloride to create a “tie-layer” using a robotic microarrayer (Microsys, Digilab); and (iii) printing a 30 nl mixture of 0.5% alginate solution, optimized-growth medium and antimicrobial agents at various concentrations on top of the tie-layer. […]
The AST-Chip was benchmarked by evaluating the antimicrobial-susceptibility of a wild type strain of Staphylococcus aureus (UAMS-1) and CA-MRSA (USA 300) against methicillin. […] After incubation, the cell density at different spots was quantified using FUN-1, a vital fluorescent dye with excitation and emission wavelength that is compatible with a standard microarray scanner and facilitating faster read out (FIG. 6A). The fluorescence intensity of control (no drug) and sodium hypochlorite-treated dead biofilms were set at 100% and 0%, respectively. The inhibitory effects of the antimicrobial agents were determined by the reduction in fluorescence intensity in comparison to the controls (FIG. 6B). […]

CN[C@H](CC(C)C)C(=O)N[C@H]1C(=O)N[C@@H](CC(N)=O)C(=O)N[C@H]2C(=O)N[C@H]3C(=O)N[C@H](C(=O)N[C@H](C(=O)O)c4cc(O)cc(O)c4-c4cc3ccc4O)[C@H](O)c3ccc(c(Cl)c3)Oc3cc2cc(c3O[C@@H]2O[C@H](CO)[C@@H](O)[C@H](O)[C@H]2O[C@H]2C[C@](C)(N)[C@H](O)[C@H](C)O2)Oc2ccc(cc2Cl)[C@H]1O [vancomycin]
relative susceptibility of isolates to the drug: less susceptible
